Experimental findings from US20140128359A1, “N-Heterocyclic Substituent-Containing Antibiotic, Preparation and Use Thereof” (priority 2012, published 2014) are described below.

Read-outs that look alike come from different tables or passages of the source.

Data set [1] can be described thus: Muscle stimulation test on rabbits. It counts as in vivo, New Zealand rabbits. From the text: The inventors have conducted the muscle stimulation test of Compounds Ia and II on rabbits. The test is as follows. Eight New Zealand rabbits were divided into three groups. Two groups, containing three rabbits per group, were administrated with Compound Ia and Compound II, respectively. The third group, containing two rabbits, was used as a negative control group. The rabbits were intramuscularly injected with high concentrations of the compounds into the left quadriceps and with low concentration into the right quadriceps. The negative control group was injected with an equal concentration of sodium chloride into the quadriceps of both sides. Each quadriceps was administrated with 1.0 mL once a day for three consecutive days. One or two rabbits from each group were anatomized after 48 hours of the injection. The remaining rabbits were anatomized after the end of the two-week recovery period.

Data set [2] is classed as physicochemical. Conditions: for content in aqueous injection solution: 37° C. An excerpt:
(§1) Compared to Compound II, Compound I has better stability in aqueous solution (see Table 2) and in the solid state (See Table 3). Thus Compound I can be stored without freezing or special treatment.

Data set [3] is described as follows: Solid state stability, 72 hours in storage at various temperatures. It counts as physicochemical.
Text: as §1

A short description of the next data set: pH of aqueous solution. The class given is physicochemical.
The test system of data set [4] is Excrement Enterococcus. The data set is described as follows: Vitro bacteriostasis, two-fold agar dilution method. It counts as cell-based. How it is done: (§2) Vitro bacteriostasis experiments of Compounds Ia, Ib, and Ic were performed using the two-fold agar dilution method.
Another data set deals with Haemophilus Influenzae. The description is as above. It counts as cell-based. The protocol:
as §2

Data set [5] deals with Moraxella Catarrhalis. The data set is described as above. The class given is cell-based. The protocol:
as §2

Data set [6] relates to Pneumonia Chain Coccus. Described as above. It counts as cell-based. How it is done: as §2
The next data set deals with Shigella. The data set is described as above. The class given is cell-based. The protocol:
as §2

A further data set relates to Type A Chain Coccus. Described as above. It counts as cell-based. How it is done: as §2
The subject of another data set is Type B Chain Coccus. Described as above. It counts as cell-based. How it is done: as §2
Data set [7] is classed as in vivo. How it is done:
The inventors conducted preliminary pharmacokinetic study of Compound Ia on Beagle dogs. The Beagle dogs were allowed to drink water freely but not to eat food for 16 hours before and 4 hours after the intravenous injection of 50 mg/kg.bw of the compound. Intravenous blood sampling took place at 0, 0.083, 0.17, 0.25, 0.5, 1, 1.5, 2, 3, 4, 6, 9, 12 hours, respectively, after the injection, each blood sample being 3 mL. Thereafter the dogs were given the drugs every other week and blood samples were taken according to the above manner. The blood samples were added to the centrifuge tubes containing heparin and thoroughly mixed by centrifuging at 4000 rpm for 10 minutes. The blood plasma was separated and an abstraction agent (methanol/ethyl acetate 3:2 V/V) was added to and mixed with it by centrifuging at 10000 rpm for 10 minutes. The top, clear liquid, 20 μL, was taken and analyzed by HPLC.

Data set [8] in a line: Acute toxicity tests on rats. The following applies: intravenous injection. It counts as in vivo.
Data set [9] concerns Excrement Enterococcus. The data set is described as follows: In-vivo antibacterial activity (protection of rats). Conditions: against Excrement Enterococcus.
Data set [10] concerns Pneumonia Chain Coccus. The description is as above. Conditions: against Pneumonia Chain Coccus.
In data set [11] the test system is Moraxella Catarrhalis. Described as above. Conditions: against Moraxella Catarrhalis.
The mark [12] stands for this setting: healthy Beagle dogs, single intravenous injection 50 mg/kg.bw.

Turning to `CC(C)N=C(NC(C)C)SCC(=O)NC1C(=O)N2C(C(=O)O)=C(CSc3nc(=O)c(=O)[nH]n3C)CSC12` (stereo not drawn) [Compound II, 7-(α-((N,N′-diisopropylamidino)thio)acetylamino)-3-(((1,2,5,6-tetrahydro-2-methyl-5,6-dioxo-1,2,4-triazin-3-yl)thio)methyl) cephalosporanic acid, reference compound], in data set [1] (rabbit, in vivo), the “irritation (general statement)” value was “irritates muscles and blood vessels”. Further, the muscle irritation observed entry in data set [1] (rabbit, in vivo) was “various levels of intense irritation”. Also, the “stability (general statement)” value in data set [2] is reported as “low stability”. Also, the “content in aqueous injection solution” value in [2] (0 hr) is recorded as 98.50%; in [2] (0.2 hr), 94.33%; in data set [2] (1 hr), 84.26%; in data set [2] (2 hr), 77.04%; in data set [2] (3 hr), 71.06%; in data set [2] (4 hr), 66.48%. For the same compound, the “content after 72 hours in storage” value in data set [3] (10° C.) was 97.9%; in [3] (40° C.), 96.3%; in data set [3] (60° C.), 92.75%; in data set [3] (−5° C.), 98.0%. In “pH of aqueous solution” (concentration not given), the pH is listed as 3.2. Further, the “pH value of saturated aqueous solution” value in “pH of aqueous solution” (saturated aqueous solution) is 3.2.

`CC(C)N=C(NC(C)C)SCC(=O)NC1C(=O)N2C(C(=O)[O-])=C(CSc3nc(=O)c(=O)[nH]n3C)CSC12.[Na+]` (stereo not drawn) [Compound Ia, 7-(α-((N,N′-diisopropylamidino)thio)acetylamino)-3-(((1,2,5,6-tetrahydro-2-methyl-5,6-dioxo-1,2,4-triazin-3-yl)thio)methyl) cephalosporanic acid mono sodium salt]: the MIC90 against Excrement Enterococcus [4] was 8 µg/mL; with Haemophilus Influenzae, 0.5 µg/mL; in the data set with Moraxella Catarrhalis [5], 1 µg/mL; in the data set on Pneumonia Chain Coccus [6] it was 0.125 µg/mL; in the data set with Shigella, 4 µg/mL; against Type A Chain Coccus it was 0.5 µg/mL. Moreover, the MIC90 against Type B Chain Coccus amounted to 0.0625 µg/mL. Besides, in data set [7] (setting [12]), the AUC is 108.29 ± 18.17 µg·h/mL. For the same compound, in data set [7] (setting [12]), the ClB is 7.83 ± 1.5 mL/min/kg. In addition, in [7] (setting [12]), the maximum concentration (Cmax) is 116.35 ± 12.06 µg/mL. For the same compound, in data set [7] (setting [12]), the V1 came to 0.25 ± 0.07 L/kg. In data set [7] (setting [12]), the VB worked out at 1.61 ± 0.30 L/kg. In [7] (setting [12]), this compound came in with a t1/2α of 37.8 ± 7.2 min. Moreover, in [7] (setting [12]), the t1/2β was 155 ± 2.4 min. Further, the “drug concentration after 12 hours of the administration” value in [7] (healthy Beagle dogs, single intravenous injection 50 mg/kg.bw, 12 hours) stood at 0.39 ± 0.09 µg/mL. In addition, in data set [8], the LD50 came out at 1747.6 mg/kg. Moreover, the protection for rats entry with Excrement Enterococcus [9], in the data set with Pneumonia Chain Coccus [10] and in the data set with Moraxella Catarrhalis [11] was “excellent protection” throughout. The muscle irritation observed result in data set [1] (rabbits, intramuscular into quadriceps, 1.0 mL once a day for three days, 48 hours and 14 days after last administration) is “slight irritation”. In addition, the “content in aqueous injection solution” value in data set [2] (0 hr) turned out to be 98.60%; in data set [2] (0.2 hr) it was 98.60%; in data set [2] (1 hr), 97.98%; in data set [2] (2 hr) it was 97.79%; in data set [2] (3 hr) it was 97.24%; in data set [2] (4 hr), 97.13%. In addition, the “content after 72 hours in storage” value in data set [3] (10° C.) is reported as 96.9%; in data set [3] (40° C.) it was 96.6%; in data set [3] (60° C.) it was 96.4%; in data set [3] (−5° C.) it was 97.0%. Besides, the pH in the data set “pH of aqueous solution” (concentration 0.1 g/mL) and in the data set “pH of aqueous solution” (concentration not given) was 7.3 in each case. The solubility in acetone entry in the data set “Solubility” (acetone) was “not readily soluble”. Moreover, the “solubility in anhydrous ethanol” value in “Solubility” (anhydrous ethanol) was “not readily soluble”. Also, the solubility in methanol result in “Solubility” (methanol) is on record as “readily soluble”. Also, the solubility in water result in “Solubility” (water) is “readily soluble”.

For the compound `CC(C)N=C(NC(C)C)SCC(=O)NC1C(=O)N2C(C(=O)[O-])=C(CSc3nc(=O)c(=O)[nH]n3C)CSC12.CC(C)N=C(NC(C)C)SCC(=O)NC1C(=O)N2C(C(=O)[O-])=C(CSc3nc(=O)c(=O)[nH]n3C)CSC12.[Na+].[Na+]` (stereo not drawn) [Compound Ib, disodium 7-(α-((N,N′-diisopropylamidino)thio)acetylamino)-3-(((1,2,5,6-tetrahydro-2-methyl-5,6-dioxo-1,2,4-triazin-3-yl)thio)methyl) cephalosporanate], the MIC90 with Excrement Enterococcus [4] stood at 4 µg/mL; in the data set on Haemophilus Influenzae it was 0.5 µg/mL; against Moraxella Catarrhalis [5], 0.5 µg/mL; against Pneumonia Chain Coccus [6] it was 0.5 µg/mL; in the data set on Shigella, 4 µg/mL; in the data set with Type A Chain Coccus it was 0.1 µg/mL. The compound further yielded an MIC90 in the data set with Type B Chain Coccus of 0.0125 µg/mL. Besides, the “content in aqueous injection solution” value is 98.80% in [2] (0 hr); 98.54% in data set [2] (0.2 hr); 97.14% in [2] (1 hr); 96.66% in data set [2] (2 hr); 95.21% in [2] (3 hr); 94.30% in [2] (4 hr). For the same compound, in the data set “pH of aqueous solution” (concentration 0.1 g/mL), the pH is 10.02.

Regarding `CC(C)N=C(NC(C)C)SCC(=O)NC1C(=O)N2C(C(=O)[O-])=C(CSc3nc(=O)c(=O)[nH]n3C)CSC12.[K+]` (stereo not drawn) [Compound Ic, 7-(α-((N,N′-diisopropylamidino)thio)acetylamino)-3-(((1,2,5,6-tetrahydro-2-methyl-5,6-dioxo-1,2,4-triazin-3-yl)thio)methyl) cephalosporanic acid monopotassium salt], the MIC90 was found to be 8 µg/mL in the data set on Excrement Enterococcus [4]; 0.5 µg/mL in the data set on Haemophilus Influenzae; 0.5 µg/mL in the data set with Moraxella Catarrhalis [5]; 0.5 µg/mL in the data set with Pneumonia Chain Coccus [6]; 4 µg/mL with Shigella; 0.1 µg/mL in the data set on Type A Chain Coccus. The compound further came in with an MIC90 against Type B Chain Coccus of 0.0156 µg/mL.

On to `CC(=O)OCC1=C(C(=O)O)N2C(=O)[C@@H](NC(=O)CSC(=NC(C)C)NC(C)C)[C@H]2SC1` [cefathiamidine, Cefathiamidine, reference compound], for which the “biological half-life in blood” value in [7] (Beagle dogs, preliminary pharmacokinetic study) was found to be 0.65 hours. The compound further displayed a t1/2β in data set [7] (setting [12]) of 39 ± 1.8 min. Also, in data set [8], the LD50 amounted to 824.2 mg/kg.

Broadly, the AUC is the area under the concentration-time curve, a measure of exposure. The term Cmax denotes the peak of the concentration-time curve. As usually defined, the LD50 is the dose at which mortality reaches 50%. Low readings indicate a more toxic substance, high ones a less toxic substance.
